From BigSolDB 2.1

Brc1cc(Br)cc(Br)c1
solubility (mole fraction)
Settings | 288.15 K | 293.15 K | 298.15 K | 303.15 K | 308.15 K | 313.15 K | 318.15 K | 323.15 K | 328.15 K
in 1,4-dioxane | 0.0656 | 0.0742 | 0.0851 | 0.0972 | 0.111 | 0.123 | 0.141 | 0.157 | 0.178
in DMAc | 0.0159 | 0.0195 | 0.024 | 0.0292 | 0.0346 | 0.041 | 0.0491 | 0.0582 | 0.0683
in DMF | 0.00998 | 0.0127 | 0.0161 | 0.0202 | 0.0244 | 0.0295 | 0.0355 | 0.044 | 0.0521
